In patent publication US5441936A, “Antiviral peptides” (priority 1993, dated 1995):
Non-standard residues stand in square brackets, D forms with d. Residues, ends and D or L forms follow the SMILES beside them.

System: Herpes Simplex Virus Type-1
Assay: Herpes Simplex Virus Type-1 plaque inhibition assay in Vero cells
Format: cell-based, Herpes simplex type 1 virus (HSV-1)
Conditions: Vero cells infected with 50 to 60 pfu HSV-1; peptide added after 2 hr virus incubation; concentration that inhibited growth of 50% of the input HSV-1
Procedure: Vero cells were seeded into 24-we! l tissue culture plates 24 to 48 hr prior to performing the plaque assay. Herpes simplex type 1 virus (HSV-1) was diluted to 50 to 60 plaque forming units (pfu)/0.1 ml Medium 199 and 0.1 ml was added to the cells. Control cultures received 0.1 ml Medium 199 without HSV-1. Plates were incubated for 2 hr at 37° C. in 5% carbon dioxide.
Following incubation of the cells with or without HSV-1, the medium was removed by aspiration. The peptides to be tested for antiviral activity were diluted in Dulbecco's modified Eagle's medium supplemented with 0.2% human gamma globulin, 5% fetal bovine serum, 10 units/ml penicillin and 5μg/ml streptomycin and 1 ml of the peptide solution was added to each of duplicate wells. Medium only was added to wells labelled for input virus or cell controls.
Cells were observed by microscopy at 24 and 48 hr to identify toxicity due to the peptides. Following the incubation period, medium was removed by aspiration and the cultures were fixed using methanol and stained with 0.037% Geimsa for 45 min. The stain was removed and the plates were rinsed and allowed to air dry. The concentration of peptide that inhibited growth of 50% of the input HSV-1 (IC50) was determined for each peptide by counting the number of viral plaques present in the peptide-treated wells as compared with the input virus control wells.
Using the plaque inhibition assay, a peptide was considered to have no antiviral effect in this assay if greater than 100 μg/ml of the peptide was required to inhibit growth of 50% of the input HSV-1.

Row | SMILES | Herpes Simplex Virus Type-1 Plaque Inhibition IC50 [µg/mL]
1 | CC(=O)N[C@H](CCCNC(=N)N)C(=O)N[C@H](CCCNC(=N)N)C(=O)N[C@H](Cc1c[nH]c2ccccc12)C(=O)N[C@H](Cc1c[nH]c2ccccc12)C(=O)N[C@H](CS)C(=O)N[C@H](CCCNC(=N)N)C(=O)N[C@H](C)C(N)=O [Ac-Arg-Arg-Trp-Trp-Cys-Arg-Ala-NH2] | 35
2 | CC(=O)N[C@H](CCCNC(=N)N)C(=O)N[C@H](CCCNC(=N)N)C(=O)N[C@H](Cc1c[nH]c2ccccc12)C(=O)N[C@H](Cc1c[nH]c2ccccc12)C(=O)N[C@H](CS)C(=O)N[C@H](CCCNC(=N)N)C(=O)N[C@H](CCCNC(=N)N)C(N)=O [Ac-Arg-Arg-Trp-Trp-Cys-Arg-Arg-NH2] | 62
3 | CC(=O)N[C@H](CCCNC(=N)N)C(=O)N[C@H](CCCNC(=N)N)C(=O)N[C@H](Cc1c[nH]c2ccccc12)C(=O)N[C@H](Cc1c[nH]c2ccccc12)C(=O)N[C@H](CS)C(=O)N[C@H](CCCNC(=N)N)C(=O)N[C@H](CC(N)=O)C(N)=O [Ac-Arg-Arg-Trp-Trp-Cys-Arg-Asn-NH2] | 85
4 | CC(=O)N[C@H](CCCNC(=N)N)C(=O)N[C@H](CCCNC(=N)N)C(=O)N[C@H](Cc1c[nH]c2ccccc12)C(=O)N[C@H](Cc1c[nH]c2ccccc12)C(=O)N[C@H](CS)C(=O)N[C@H](CCCNC(=N)N)C(=O)N[C@H](CC(=O)O)C(N)=O [Ac-Arg-Arg-Trp-Trp-Cys-Arg-Asp-NH2] | > 100
5 | CC(=O)N[C@H](CCCNC(=N)N)C(=O)N[C@H](CCCNC(=N)N)C(=O)N[C@H](Cc1c[nH]c2ccccc12)C(=O)N[C@H](Cc1c[nH]c2ccccc12)C(=O)N[C@H](CS)C(=O)N[C@H](CCCNC(=N)N)C(=O)N[C@H](CS)C(N)=O [Ac-Arg-Arg-Trp-Trp-Cys-Arg-Cys-NH2] (Ac-[dR][dR][dW][dW][dC][dR][dC]-NH2) | 50
6 | CC(=O)N[C@H](CCCNC(=N)N)C(=O)N[C@H](CCCNC(=N)N)C(=O)N[C@H](Cc1c[nH]c2ccccc12)C(=O)N[C@H](Cc1c[nH]c2ccccc12)C(=O)N[C@H](CS)C(=O)N[C@H](CCCNC(=N)N)C(=O)N[C@H](CCC(N)=O)C(N)=O [Ac-Arg-Arg-Trp-Trp-Cys-Arg-Gln-NH2] | 37
7 | CC(=O)N[C@H](CCCNC(=N)N)C(=O)N[C@H](CCCNC(=N)N)C(=O)N[C@H](Cc1c[nH]c2ccccc12)C(=O)N[C@H](Cc1c[nH]c2ccccc12)C(=O)N[C@H](CS)C(=O)N[C@H](CCCNC(=N)N)C(=O)N[C@H](CCC(=O)O)C(N)=O [Ac-Arg-Arg-Trp-Trp-Cys-Arg-Glu-NH2] | > 100
8 | CC(=O)N[C@H](CCCNC(=N)N)C(=O)N[C@H](CCCNC(=N)N)C(=O)N[C@H](Cc1c[nH]c2ccccc12)C(=O)N[C@H](Cc1c[nH]c2ccccc12)C(=O)N[C@H](CS)C(=O)N[C@H](CCCNC(=N)N)C(=O)NCC(N)=O [Ac-Arg-Arg-Trp-Trp-Cys-Arg-Gly-NH2] | > 100
9 | CC(=O)N[C@H](CCCNC(=N)N)C(=O)N[C@H](CCCNC(=N)N)C(=O)N[C@H](Cc1c[nH]c2ccccc12)C(=O)N[C@H](Cc1c[nH]c2ccccc12)C(=O)N[C@H](CS)C(=O)N[C@H](CCCNC(=N)N)C(=O)N[C@H](Cc1c[nH]cn1)C(N)=O [Ac-Arg-Arg-Trp-Trp-Cys-Arg-His-NH2] | > 100
10 | CC[C@@H](C)[C@@H](NC(=O)[C@@H](CCCNC(=N)N)NC(=O)[C@@H](CS)NC(=O)[C@@H](Cc1c[nH]c2ccccc12)NC(=O)[C@@H](Cc1c[nH]c2ccccc12)NC(=O)[C@@H](CCCNC(=N)N)NC(=O)[C@@H](CCCNC(=N)N)NC(C)=O)C(N)=O [Ac-Arg-Arg-Trp-Trp-Cys-Arg-Ile-NH2] | > 100
11 | CC(=O)N[C@H](CCCNC(=N)N)C(=O)N[C@H](CCCNC(=N)N)C(=O)N[C@H](Cc1c[nH]c2ccccc12)C(=O)N[C@H](Cc1c[nH]c2ccccc12)C(=O)N[C@H](CS)C(=O)N[C@H](CCCNC(=N)N)C(=O)N[C@H](CC(C)C)C(N)=O [Ac-Arg-Arg-Trp-Trp-Cys-Arg-Leu-NH2] | 61
12 | CC(=O)N[C@H](CCCNC(=N)N)C(=O)N[C@H](CCCNC(=N)N)C(=O)N[C@H](Cc1c[nH]c2ccccc12)C(=O)N[C@H](Cc1c[nH]c2ccccc12)C(=O)N[C@H](CS)C(=O)N[C@H](CCCNC(=N)N)C(=O)N[C@H](CCCCN)C(N)=O [Ac-Arg-Arg-Trp-Trp-Cys-Arg-Lys-NH2] | 50
13 | CSCC[C@@H](NC(=O)[C@@H](CCCNC(=N)N)NC(=O)[C@@H](CS)NC(=O)[C@@H](Cc1c[nH]c2ccccc12)NC(=O)[C@@H](Cc1c[nH]c2ccccc12)NC(=O)[C@@H](CCCNC(=N)N)NC(=O)[C@@H](CCCNC(=N)N)NC(C)=O)C(N)=O [Ac-Arg-Arg-Trp-Trp-Cys-Arg-Met-NH2] | > 50
14 | CC(=O)N[C@H](CCCNC(=N)N)C(=O)N[C@H](CCCNC(=N)N)C(=O)N[C@H](Cc1c[nH]c2ccccc12)C(=O)N[C@H](Cc1c[nH]c2ccccc12)C(=O)N[C@H](CS)C(=O)N[C@H](CCCNC(=N)N)C(=O)N[C@H](Cc1ccccc1)C(N)=O [Ac-Arg-Arg-Trp-Trp-Cys-Arg-Phe-NH2] | 59
15 | CC(=O)N[C@H](CCCNC(=N)N)C(=O)N[C@H](CCCNC(=N)N)C(=O)N[C@H](Cc1c[nH]c2ccccc12)C(=O)N[C@H](Cc1c[nH]c2ccccc12)C(=O)N[C@H](CS)C(=O)N[C@H](CCCNC(=N)N)C(=O)N1CCC[C@@H]1C(N)=O [Ac-Arg-Arg-Trp-Trp-Cys-Arg-Pro-NH2] | > 100
16 | CC(=O)N[C@H](CCCNC(=N)N)C(=O)N[C@H](CCCNC(=N)N)C(=O)N[C@H](Cc1c[nH]c2ccccc12)C(=O)N[C@H](Cc1c[nH]c2ccccc12)C(=O)N[C@H](CS)C(=O)N[C@H](CCCNC(=N)N)C(=O)N[C@H](CO)C(N)=O [Ac-Arg-Arg-Trp-Trp-Cys-Arg-Ser-NH2] | > 100
17 | CC(=O)N[C@H](CCCNC(=N)N)C(=O)N[C@H](CCCNC(=N)N)C(=O)N[C@H](Cc1c[nH]c2ccccc12)C(=O)N[C@H](Cc1c[nH]c2ccccc12)C(=O)N[C@H](CS)C(=O)N[C@H](CCCNC(=N)N)C(=O)N[C@@H](C(N)=O)[C@H](C)O [Ac-Arg-Arg-Trp-Trp-Cys-Arg-Thr-NH2] | > 100
18 | CC(=O)N[C@H](CCCNC(=N)N)C(=O)N[C@H](CCCNC(=N)N)C(=O)N[C@H](Cc1c[nH]c2ccccc12)C(=O)N[C@H](Cc1c[nH]c2ccccc12)C(=O)N[C@H](CS)C(=O)N[C@H](CCCNC(=N)N)C(=O)N[C@H](Cc1c[nH]c2ccccc12)C(N)=O [Ac-Arg-Arg-Trp-Trp-Cys-Arg-Trp-NH2] | 37
19 | CC(=O)N[C@H](CCCNC(=N)N)C(=O)N[C@H](CCCNC(=N)N)C(=O)N[C@H](Cc1c[nH]c2ccccc12)C(=O)N[C@H](Cc1c[nH]c2ccccc12)C(=O)N[C@H](CS)C(=O)N[C@H](CCCNC(=N)N)C(=O)N[C@H](Cc1ccc(O)cc1)C(N)=O [Ac-Arg-Arg-Trp-Trp-Cys-Arg-Tyr-NH2] | > 100
20 | CC(=O)N[C@H](CCCNC(=N)N)C(=O)N[C@H](CCCNC(=N)N)C(=O)N[C@H](Cc1c[nH]c2ccccc12)C(=O)N[C@H](Cc1c[nH]c2ccccc12)C(=O)N[C@H](CS)C(=O)N[C@H](CCCNC(=N)N)C(=O)N[C@@H](C(N)=O)C(C)C [Ac-Arg-Arg-Trp-Trp-Cys-Arg-Val-NH2] | 58
